This passage reports Activity results from ChEMBL document CHEMBL1157056, “Synthesis and anti-inflammatory evaluation of some condensed [4-(3,4-dimethylphenyl)-1(2H)-oxo-phthalazin-2-yl]acetic acid hydrazide” (Eur J Med Chem, 2010).

Activity calls are given as the source filed them. The rule behind the calls is not given here.

For the assay, the system named is Rattus norvegicus. The assay is described as follows: Antiinflammatory activity in rat at 20 mg/kg, ip after 10 days by sponge implantation method. Format: functional, organism-based. Details: dose 20 mg/kg.
Turning to `CC1=NN(C(=O)Cn2nc(-c3ccc(C)c(C)c3)c3ccccc3c2=O)C(=O)C1`, the result was Active.

In the case of `Cc1ccc(-c2nn(CC(=O)NNC(=S)NCc3ccccc3)c(=O)c3ccccc23)cc1C`, the result was Active.

For the compound `CCO/C=N/NC(=O)Cn1nc(-c2ccc(C)c(C)c2)c2ccccc2c1=O`, the result was Active.

On to `Cc1ccc(-c2nn(Cc3n[nH]c(=S)o3)c(=O)c3ccccc23)cc1C`, for which the result was Active.

For `Cc1ccc(-c2nn(CC(=O)N/N=C/NN)c(=O)c3ccccc23)cc1C`, the outcome was Active.
